≈ marks a conversion by molar mass, not a printed value.
Tested on: HDAC
Experiment: Inhibition of HDAC activity (fluorometric, HeLa nuclear extract)
Assay type: biochemical, human
Details: 30 min room temperature
Method: In order to determine inhibitory activity of a compound in accordance with the present invention on HDAC, evaluation was carried out using an aminocoumarin derivative of ω-acetylated lysine as a substrate for an enzyme. As an enzyme source, a nuclear extract obtained from human cervical cancer cell line HeLa cells was used. The above evaluation was carried out with modification of a method based on the details described in Weegener et al. (2003) Analytical Biochemistry, 321, 203-208. That is, […], […] of nuclear extract and a compound of Example 1 at different concentrations were added and maintained at room temperature for 30 min. Trypsin (10 mg/ml) and Trichostatin A (final concentration: […]) were added to the resulting mixture which was reacted at the same temperature for 20 min, thereby terminating the reaction. The enzyme activity-inhibitory concentration of the compound added was determined using a fluorometer. As a control compound, suberoylanilide hydroxamic acid (SAHA) was used. IC50 in Table 1 below refers to a concentration of the compound that leads to a 50% decrease in activity of HDAC.
COc1ccccc1-c1oc(CCCCCCC(=O)NO)nc1-c1ccccc1 [Example 2, 7-[5-(2-methoxy-phenyl)-4-phenyl-oxazol-2-yl]-heptanoic acid hydroxyamide] gave an IC50 of 0.00661 µM.
For COc1cccc(-c2oc(CCCCCCC(=O)NO)nc2-c2ccccc2)c1 [Example 3, 7-[5-(3-methoxy-phenyl)-4-phenyl-oxazol-2-yl]-heptanoic acid hydroxyamide], the IC50 was 0.00158 µM.
For O=C(CCCCCCc1nc(-c2ccccc2)c(-c2ccccc2F)o1)NO [Example 5, 7-[5-(2-fluoro-phenyl)-4-phenyl-oxazol-2-yl]-heptanoic acid hydroxyamide], the IC50 was 0.00174 µM.
Cc1ccc(-c2oc(CCCCCCC(=O)NO)nc2-c2ccccc2)cc1 [Example 7, 7-(4-phenyl-5-p-tolyl-oxazol-2-yl)-heptanoic acid hydroxyamide] gave an IC50 of 0.002 µM.
With CCOc1ccc(-c2oc(CCCCCCC(=O)NO)nc2-c2ccccc2)cc1 [Example 8, 7-[5-(4-ethoxy-phenyl)-4-phenyl-oxazol-2-yl]-heptanoic acid hydroxyamide] the IC50 was 0.0012 µM.

Tested on: HeLa
Experiment: In vitro toxicity / growth inhibition (CellTiter-Glo), HeLa
Assay type: cell-based
Details: Homo sapiens, 48 hr
Method: (§1) In order to determine in vitro toxicity of a compound in accordance with the present invention, 18 species of human cancer cell lines (HeLa, cervical cancer cell line; HCT116, SW480, SW620, RKO, colon cancer cell lines; H460, H1299, A549, lung cancer cell lines; MCF7, MDA-MB231, MDA-MB453, breast cancer cell lines; Jurkat, K562, THP1, Ramos, U937, blood cancer cell lines; PC3, DU145, prostate cancer cell lines) were used. Cell lines were cultured in RPMI 1640 culture medium containing penicillin/streptomycin (100 units/mL) and heat-inactivated 5% fetal bovine serum (FBS) under standard culture conditions ([…], 5% CO2, and 100% relative humidity). Thereafter, single cell suspension was obtained via trypsin treatment and pipetting. The suspension was diluted with the same medium such that a cell density is in a range of 8×10^3 to 1.5×10^4 cells/well, and was transferred to a 96-well microtiter plate. After culturing for 24 hours, cell cultures were treated with respective compounds of Examples at various concentrations. […] The above evaluation was carried out according to the methods given in a manufacture's manual. GI50 in Table 1 below refers to a concentration that compounds of Examples cause 50% growth inhibition of various cancer cells.
In the case of COc1ccccc1-c1oc(CCCCCCC(=O)NO)nc1-c1ccccc1 [Example 2, 7-[5-(2-methoxy-phenyl)-4-phenyl-oxazol-2-yl]-heptanoic acid hydroxyamide], the GI50 is reported as 9.33 µM.
COc1cccc(-c2oc(CCCCCCC(=O)NO)nc2-c2ccccc2)c1 [Example 3, 7-[5-(3-methoxy-phenyl)-4-phenyl-oxazol-2-yl]-heptanoic acid hydroxyamide] showed a GI50 of 16.9 µM.
Compound O=C(CCCCCCc1nc(-c2ccccc2)c(-c2ccccc2F)o1)NO [Example 5, 7-[5-(2-fluoro-phenyl)-4-phenyl-oxazol-2-yl]-heptanoic acid hydroxyamide] has a GI50 of 3.6 µM.
Compound Cc1ccc(-c2oc(CCCCCCC(=O)NO)nc2-c2ccccc2)cc1 [Example 7, 7-(4-phenyl-5-p-tolyl-oxazol-2-yl)-heptanoic acid hydroxyamide] has a GI50 of 2.4 µM.
Compound CCOc1ccc(-c2oc(CCCCCCC(=O)NO)nc2-c2ccccc2)cc1 [Example 8, 7-[5-(4-ethoxy-phenyl)-4-phenyl-oxazol-2-yl]-heptanoic acid hydroxyamide] has a GI50 of 1.5 µM.

Tested on: HCT116
Experiment: In vitro toxicity / growth inhibition (CellTiter-Glo), HCT116
Assay type: cell-based
Details: Homo sapiens, HCT-116; HCT116, 48 hr
Method: as §1
Compound COc1ccccc1-c1oc(CCCCCCC(=O)NO)nc1-c1ccccc1 [Example 2, 7-[5-(2-methoxy-phenyl)-4-phenyl-oxazol-2-yl]-heptanoic acid hydroxyamide] has a GI50 of 8.3 µM.
Compound COc1cccc(-c2oc(CCCCCCC(=O)NO)nc2-c2ccccc2)c1 [Example 3, 7-[5-(3-methoxy-phenyl)-4-phenyl-oxazol-2-yl]-heptanoic acid hydroxyamide] has a GI50 of 6.5 µM.
For O=C(CCCCCCc1nc(-c2ccccc2)c(-c2ccccc2F)o1)NO [Example 5, 7-[5-(2-fluoro-phenyl)-4-phenyl-oxazol-2-yl]-heptanoic acid hydroxyamide], the GI50 was 10.7 µM.
Work on Cc1ccc(-c2oc(CCCCCCC(=O)NO)nc2-c2ccccc2)cc1 [Example 7, 7-(4-phenyl-5-p-tolyl-oxazol-2-yl)-heptanoic acid hydroxyamide] yielded a GI50 of 2.7 µM.
CCOc1ccc(-c2oc(CCCCCCC(=O)NO)nc2-c2ccccc2)cc1 [Example 8, 7-[5-(4-ethoxy-phenyl)-4-phenyl-oxazol-2-yl]-heptanoic acid hydroxyamide] gave a GI50 of 1.2 µM.

Tested on: H460
Experiment: In vitro toxicity / growth inhibition (CellTiter-Glo), H460
Assay type: cell-based
Details: Homo sapiens, NCI-H460; H460, 48 hr
Method: as §1
In the case of O=C(CCCCCCc1nc(-c2ccccc2)c(-c2ccccc2F)o1)NO [Example 5, 7-[5-(2-fluoro-phenyl)-4-phenyl-oxazol-2-yl]-heptanoic acid hydroxyamide], the GI50 is reported as 14.2 µM.
Cc1ccc(-c2oc(CCCCCCC(=O)NO)nc2-c2ccccc2)cc1 [Example 7, 7-(4-phenyl-5-p-tolyl-oxazol-2-yl)-heptanoic acid hydroxyamide] gave a GI50 of 9.9 µM.
In the case of CCOc1ccc(-c2oc(CCCCCCC(=O)NO)nc2-c2ccccc2)cc1 [Example 8, 7-[5-(4-ethoxy-phenyl)-4-phenyl-oxazol-2-yl]-heptanoic acid hydroxyamide], the GI50 is reported as 4.2 µM.

Tested on: not listed separately
Experiment: Solubility
Assay type: physicochemical
Details: not given
In the case of COc1ccccc1-c1oc(CCCCCCC(=O)NO)nc1-c1ccccc1 [Example 2, 7-[5-(2-methoxy-phenyl)-4-phenyl-oxazol-2-yl]-heptanoic acid hydroxyamide], the solubility is reported as 400 µg/mL (≈ 1010 µM).
COc1cccc(-c2oc(CCCCCCC(=O)NO)nc2-c2ccccc2)c1 [Example 3, 7-[5-(3-methoxy-phenyl)-4-phenyl-oxazol-2-yl]-heptanoic acid hydroxyamide] gave a solubility of 200 µg/mL (≈ 507 µM).
Work on O=C(CCCCCCc1nc(-c2ccccc2)c(-c2ccccc2F)o1)NO [Example 5, 7-[5-(2-fluoro-phenyl)-4-phenyl-oxazol-2-yl]-heptanoic acid hydroxyamide] yielded a solubility of 300 µg/mL (≈ 784 µM).
Work on Cc1ccc(-c2oc(CCCCCCC(=O)NO)nc2-c2ccccc2)cc1 [Example 7, 7-(4-phenyl-5-p-tolyl-oxazol-2-yl)-heptanoic acid hydroxyamide] yielded a solubility of 200 µg/mL (≈ 528 µM).
Compound CCOc1ccc(-c2oc(CCCCCCC(=O)NO)nc2-c2ccccc2)cc1 [Example 8, 7-[5-(4-ethoxy-phenyl)-4-phenyl-oxazol-2-yl]-heptanoic acid hydroxyamide] has a solubility of 200 µg/mL (≈ 490 µM).

Tested on: Raw cell
Experiment: Inhibition of LPS-induced NO increases
Assay type: cell-based, Mouse
Details: 5 μM compound, LPS, 18 hours, Griess Reagent
Method: As one of the methods to confirm anti-inflammatory responses, inhibition of increases in nitric oxide (NO) due to lipopolysaccharide (LPS) was carried out. Mouse cell line (Raw cell) was cultured in RPMI 1640 culture medium containing penicillin/streptomycin (100 units/mL) and heat-inactivated 5% fetal bovine serum (FBS) under standard culture conditions ([…], 5% CO2, 37° C., and 100% relative humidity). Test compounds were dissolved in dimethylsulfoxide (DMSO) and were used as a final concentration of 1 to 40 μM. Cells were proliferated to a cell density of 5×10^3 to 2×10^4 cells on a 24-well plate and were treated with the respective compounds (equal amounts of 5 μM) 1 hour prior to treatment with LPS ([…]). The thus-treated cells were cultured for 18 hours, and thereafter the amounts of NO thus produced were measured using Griess Reagent. Measurement was confirmed using an absorption spectrophotometer at 540 nm. The value was expressed as percentage (%) relative to a control in which LPS alone was treated.
In the case of COc1ccccc1-c1oc(CCCCCCC(=O)NO)nc1-c1ccccc1 [Example 2, 7-[5-(2-methoxy-phenyl)-4-phenyl-oxazol-2-yl]-heptanoic acid hydroxyamide], the NO is reported as 77.9 μM/L.
With O=C(CCCCCCc1nc(-c2ccccc2)c(-c2ccccc2F)o1)NO [Example 5, 7-[5-(2-fluoro-phenyl)-4-phenyl-oxazol-2-yl]-heptanoic acid hydroxyamide] the NO was 69.0 μM/L.
Compound CCOc1ccc(-c2oc(CCCCCCC(=O)NO)nc2-c2ccccc2)cc1 [Example 8, 7-[5-(4-ethoxy-phenyl)-4-phenyl-oxazol-2-yl]-heptanoic acid hydroxyamide] has an NO of 63.7 μM/L.

Same assay, conditions: Mus musculus, 18 h; 5 μM compound, relative to LPS alone control
COc1ccccc1-c1oc(CCCCCCC(=O)NO)nc1-c1ccccc1 [Example 2, 7-[5-(2-methoxy-phenyl)-4-phenyl-oxazol-2-yl]-heptanoic acid hydroxyamide] showed an activity at 5 µM of 97.8%.
For O=C(CCCCCCc1nc(-c2ccccc2)c(-c2ccccc2F)o1)NO [Example 5, 7-[5-(2-fluoro-phenyl)-4-phenyl-oxazol-2-yl]-heptanoic acid hydroxyamide], the activity at 5 µM was 72.7%.
Compound CCOc1ccc(-c2oc(CCCCCCC(=O)NO)nc2-c2ccccc2)cc1 [Example 8, 7-[5-(4-ethoxy-phenyl)-4-phenyl-oxazol-2-yl]-heptanoic acid hydroxyamide] has an activity at 5 µM of 57.7%.

Reference: US8039634B2, “Oxazole hydroxamic acid derivatives and use thereof” (SK Holdings Co., Ltd., priority 2005, dated 2011)
